Measured values from patent publication US20180370927A1, “MICROBIOCIDAL OXADIAZOLE DERIVATIVES” (SYNGENTA PARTICIPATIONS AG, priority 2015, published 2018).
Where two headings read alike, the source gives them in different places.

What was measured:
Phakopsora pachyrhizi = Phakopsora pachyrhizi / soybean / leaf disc preventative (Asian soybean rust); assay type: in vivo; details: foliar, 200 ppm in the applied formulation, soybean leaf disks, assessed 12 to 14 days after application, read-out: disease control compared to untreated control leaf disks
Method in brief: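 Soybean leaf discs on water agar were sprayed with formulated compound diluted in water, then inoculated one day later with spore suspension on the lower leaf surface. Held 24-36 h dark at 20° C., 75% RH, then 12 h light/day; percent disease control versus untreated scored 12 to 14 days after application.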

[1] = tested on: Glomerella lacenarium (Colletotrichum lacenarium); test: Glomerella lacenarium (Colletotrichum lacenarium) liquid culture / cucumber / preventative (anthracnose); assay type: cell-based; details: read-out: disease control (inhibition of growth, photometric) compared to untreated control
Method in brief: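 At 20 ppm in the applied formulation, compounds were mixed with fungal spores in potato dextrose broth and held at 24° C. After 3–4 days, photometric growth measurement gave percent antifungal activity relative to untreated control.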

[2] = tested on: Puccinia recondita f. Sp. Tritici; test: Puccinia recondita f. sp. tritici / wheat / leaf disc curative (brown rust); assay type: in vivo; details: foliar, read-out: disease control compared to untreated control leaf disks
Method in brief: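 Curative treatment: formulated compound in water was applied 1 day post-inoculation to spore-inoculated wheat cv. Kanzler segments held on agar. Segments stayed at 19° C and 75% relative humidity (12 h photoperiod after application), and disease control relative to untreated checks was assessed 6 to 8 days later.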

[3] = tested on: Puccinia recondita f. Sp. Tritici; test: Puccinia recondita f. sp. tritici / wheat / leaf disc preventative (brown rust); assay type: in vivo; details: foliar, read-out: disease control compared to untreated control leaf disks
Method in brief: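 Wheat cv. Kanzler leaf segments on agar sprayed with formulated compound in water, inoculated with rust spores 1 day later. Incubated at 19° C, 75% rh, 12 h light/12 h dark; percent disease control versus untreated scored 7 to 9 days after application; tested at 200 ppm.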

[4] = 20 ppm in the applied formulation, liquid culture in PDB, 24° C., 3 to 4 days after application
[5] = 200 ppm in the applied formulation, wheat leaf segments, curative (applied 1 day after inoculation), assessed 6 to 8 days after application
[6] = 200 ppm in the applied formulation, wheat leaf segments, preventative, assessed 7 to 9 days after application

Row | melting point | SMILES | pest or weed control at 200 ppm (Phakopsora pachyrhizi) | inhibition at 20 ppm [1, 4] | pest or weed control at 200 ppm [2, 5] | pest or weed control at 200 ppm [3, 6] | inhibition at 20 ppm [1] | pest or weed control at 200 ppm [2] | pest or weed control at 200 ppm [3]
1 | 75.8 to 77.5 °C | CC(=O)C(=O)NCc1ccc(-c2noc(C(F)(F)F)n2)cc1 [Compound 1.35, 2-oxo-N-[[4-[5-(trifluoromethyl)-1,2,4-oxadiazol-3-yl]phenyl]methyl]propanamide] | ≥ 80% | ≥ 80% | ≥ 80% | ≥ 80% |  |  | 
2 | 112 to 114 °C | CCOCCOC(=O)C(=O)NCc1ccc(-c2noc(C(F)(F)F)n2)cc1 [Compound 3.4, 2-ethoxyethyl 2-oxo-2-[[4-[5-(trifluoromethyl)-1,2,4-oxadiazol-3-yl]phenyl]methylamino]acetate] |  | ≥ 80% |  | ≥ 80% |  |  | 
3 | 112 to 116 °C | CC1CCC(OC(=O)C(=O)NCc2ccc(-c3noc(C(F)(F)F)n3)cc2)C1 (stereo not shown) [Compound 3.5, (3-methylcyclopentyl) 2-oxo-2-[[4-[5-(trifluoromethyl)-1,2,4-oxadiazol-3-yl]phenyl]methylamino]acetate] |  | ≥ 80% |  | ≥ 80% |  |  | 
4 | 102 to 105 °C | O=C(NCc1ccc(-c2noc(C(F)(F)F)n2)cc1)C(=O)OC1CCSC1 (stereo not shown) [Compound 3.6, tetrahydrothiophen-3-yl 2-oxo-2-[[4-[5-(trifluoromethyl)-1,2,4-oxadiazol-3-yl]phenyl]methylamino]acetate] |  | ≥ 80% |  | ≥ 80% |  |  | 
5 | 162 to 173 °C | O=C(O)C(=O)NCc1ccc(-c2noc(C(F)(F)F)n2)cc1 [Compound 3.8, 2-oxo-2-[[4-[5-(trifluoromethyl)-1,2,4-oxadiazol-3-yl]phenyl]methylamino]acetic acid] | ≥ 80% |  |  |  |  |  | 
6 | 112 to 116 °C | CCOC(=O)C(=O)NCc1ccc(-c2noc(C(F)(F)F)n2)cc1 [Compound 3.9, ethyl 2-oxo-2-[[4-[5-(trifluoromethyl)-1,2,4-oxadiazol-3-yl]phenyl]methylamino] acetate] | ≥ 80% | ≥ 80% |  | ≥ 80% |  |  | 
7 |  | CN(C)C(=O)C(=O)NCc1ccc(-c2noc(C(F)(F)F)n2)cc1F [Compound 4.92, N-[[2-fluoro-4-[5-(trifluoromethyl)-1,2,4-oxadiazol-3-yl]phenyl]methyl]-N',N'-dimethyl-oxamide] | ≥ 80% | ≥ 80% | ≥ 80% | ≥ 80% |  |  | 
8 |  | CN(C)C(=O)C(=O)NCc1ccc(-c2noc(C(F)(F)F)n2)c(F)c1 [Compound 4.93, N-[[3-fluoro-4-[5-(trifluoromethyl)-1,2,4-oxadiazol-3-yl]phenyl]methyl]-N',N'-dimethyl-oxamide] | ≥ 80% | ≥ 80% | ≥ 80% | ≥ 80% |  |  | 
9 |  | CN(C)C(=O)C(=O)NCc1ccc(-c2noc(C(F)(F)F)n2)c(F)c1F [Compound 4.94, N-[[2,3-difluoro-4-[5-(trifluoromethyl)-1,2,4-oxadiazol-3-yl]phenyl]methyl]-N',N'-dimethyl-oxamide] | ≥ 80% | ≥ 80% | ≥ 80% | ≥ 80% |  |  | 
10 |  | CON(Cc1ccc(-c2noc(C(F)(F)F)n2)cc1F)C(=O)C(=O)N(C)C [Compound 4.95, N′-[[2-fluoro-4-[5-(trifluoromethyl)-1,2,4-oxadiazol-3-yl]phenyl]methyl]-N′-methoxy-N,N-dimethyl-oxamide] | ≥ 80% | ≥ 80% | ≥ 80% | ≥ 80% |  |  | 
11 |  | CN(C)C(=O)C(=O)NCc1ccc(-c2noc(C(F)(F)F)n2)cc1Cl [Compound 4.96, N-[[2-chloro-4-[5-(trifluoromethyl)-1,2,4-oxadiazol-3-yl]phenyl]methyl]-N′,N′-dimethyl-oxamide] | ≥ 80% | ≥ 80% | ≥ 80% | ≥ 80% |  |  | 
12 |  | Cc1cc(-c2noc(C(F)(F)F)n2)ccc1CNC(=O)C(=O)N(C)C [Compound 4.97, N′,N′-dimethyl-N-[[2-methyl-4-[5-(trifluoromethyl)-1,2,4-oxadiazol-3-yl]phenyl]methyl] oxamide] | ≥ 80% | ≥ 80% | ≥ 80% | ≥ 80% |  |  | 
13 |  | CN(C)C(=O)C(=O)NCc1c(F)cc(-c2noc(C(F)(F)F)n2)cc1F [Compound 4.98, N-[[2,6-difluoro-4-[5-(trifluoromethyl)-1,2,4-oxadiazol-3-yl]phenyl]methyl]-N′,N′-dimethyl-oxamide] | ≥ 80% | ≥ 80% | ≥ 80% | ≥ 80% |  |  | 
14 |  | CCN(Cc1ccc(-c2noc(C(F)(F)F)n2)cc1)C(=O)C(=O)NC [Compound 4.101, N′-ethyl-N-methyl-N′-[[4-[5-(trifluoromethyl)-1,2,4-oxadiazol-3-yl]phenyl]methyl] oxamide] | ≥ 80% | ≥ 80% | ≥ 80% | ≥ 80% |  |  | 
15 |  | CON(C)C(=O)C(=O)N(C)Cc1ccc(-c2noc(C(F)(F)F)n2)cc1 [Compound 4.104, N′-methoxy-N,N′-dimethyl-N-[[4-[5-- (trifluoromethyl)-1,2,4-oxadiazol-3-yl]phenyl]methyl] oxamide] | ≥ 80% | ≥ 80% | ≥ 80% | ≥ 80% |  |  | 
16 |  | CON(C)C(=O)C(=O)N(Cc1ccc(-c2noc(C(F)(F)F)n2)cc1)C1CC1 [Compound 4.105, N′-cyclopropyl-N-methoxy-N-methyl-N′-[[4-[5-(trifluoromethyl)-1,2,4-oxadiazol-3-yl]phenyl]methyl] oxamide] | ≥ 80% | ≥ 80% | ≥ 80% | ≥ 80% |  |  | 
17 |  | CCN(Cc1ccc(-c2noc(C(F)(F)F)n2)cc1)C(=O)C(=O)N(C)OC [Compound 4.106, N′-ethyl-N-methoxy-N-methyl-N′-[[4-[5-(trifluoromethyl)-1,2,4-oxadiazol-3-yl]phenyl]methyl] oxamide] | ≥ 80% | ≥ 80% | ≥ 80% | ≥ 80% |  |  | 

Row | SMILES | melting point | pest or weed control at 200 ppm (Phakopsora pachyrhizi) | inhibition at 20 ppm [1, 4] | pest or weed control at 200 ppm [2, 5] | pest or weed control at 200 ppm [3, 6] | inhibition at 20 ppm [1] | pest or weed control at 200 ppm [2] | pest or weed control at 200 ppm [3]
18 | CO/N=C(\C#N)C(=O)NCc1ccc(-c2noc(C(F)(F)F)n2)cc1 [Compound 2.13, (1E)-N-methoxy-2-oxo-2-[[4-[5-(trifluoromethyl)-1,2,4-oxadiazol-3-yl]phenyl]methylamino] acetimidoyl cyanide] | 130 to 131 °C |  |  |  |  | ≥ 80% |  | 
19 | CO/N=C(\C#N)C(=O)N(Cc1ccc(-c2noc(C(F)(F)F)n2)cc1)OC [Compound 2.14, (1E)-N-methoxy-2-[methoxy-[[4-[5-(trifluoromethyl)-1,2,4-oxadiazol-3-yl]phenyl]methyl]amino]-2-oxo-acetimidoyl cyanide] | 67 to 68 °C |  |  |  |  | ≥ 80% | ≥ 80% | ≥ 80%
